{
  "source": "paper PMC8963254",
  "about": "“Effects of Lysine N-ζ-Methylation in Ultrashort Tetrabasic Lipopeptides (UTBLPs) on the Potentiation of Rifampicin, Novobiocin, and Niclosamide in Gram-Negative Bacteria” (Antibiotics, 2022)",
  "key": {"[1]": {"system": "E. coli 94393", "type": "cell-based, Escherichia coli", "settings": "for MICUTBLP: UTBLP alone", "in_short": "(§1)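 Checkerboard synergy assay: antibiotic and OMP combined at varying concentrations with 5 × 10^5 CFU/mL inoculum (final), 37 °C, 18 h; growth read as turbidity at 590 nm. FICI = sum of FICs (MIC in combination / MIC alone); ≤0.5 synergistic, 0.5–4 additive, >4 antagonistic.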"}, "[2]": {"system": "E. coli 94474", "type": "cell-based, Escherichia coli", "settings": "for MICUTBLP: UTBLP alone", "in_short": "as §1"}, "[3]": {"system": "E. coli ATCC 25922", "type": "cell-based, Escherichia coli", "settings": "for MICUTBLP: UTBLP alone", "in_short": "as §1"}, "[4]": {"system": "A. baumannii AB92247", "assay": "microbe, parasite or virus in culture", "type": "cell-based, Acinetobacter baumannii", "settings": "AB92247, 18 h", "in_short": "(§2)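 Minimum inhibitory concentration came from a CLSI broth dilution assay: 18 h at 37 °C, inoculum 5 × 10^5 CFU/mL final.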"}, "[5]": {"system": "A. baumannii AB027", "assay": "microbe, parasite or virus in culture", "type": "cell-based, Acinetobacter baumannii", "settings": "AB027, 18 h", "in_short": "as §2"}, "[6]": {"system": "E. faecalis ATCC 29212", "type": "cell-based, Enterococcus faecalis", "in_short": "as §1"}, "[7]": {"system": "A. baumannii ATCC 17978", "type": "cell-based, Acinetobacter baumannii", "settings": "ATCC 17978, 18 h", "procedure": "(§3) The in vitro antibacterial activity of the UTBLPs was assessed against wild-type and clinically isolated bacterial strains. To obtain the MIC of the compounds, the microbroth dilution susceptibility assay was performed according to the Clinical and Laboratory Standards Institute (CLSI, Wayne, PA, USA) guidelines and as previously described. Briefly, the compounds at varying concentrations were incubated with bacterial inoculum (5 × 10^5 CFU/mL final concentration) at 37 °C for 18 h. Growth in the form of turbidity was confirmed using an EMax Plus microplate reader (Molecular Devices, San Jose, CA, USA) at 590 nm."}, "[8]": {"system": "P. aeruginosa PA262-101856", "assay": "microbe, parasite or virus in culture", "type": "cell-based, Pseudomonas aeruginosa", "settings": "PA262-101856, 18 h", "in_short": "as §2"}, "[9]": {"system": "P. aeruginosa PA259-96196", "assay": "microbe, parasite or virus in culture", "type": "cell-based, Pseudomonas aeruginosa", "settings": "PA259-96196, 18 h", "in_short": "as §2"}, "[10]": {"system": "K. pneumoniae 113250", "assay": "microbe, parasite or virus in culture", "type": "cell-based, Klebsiella pneumoniae", "settings": "113250, 18 h", "in_short": "as §2"}, "[11]": {"system": "P. aeruginosa PAO1", "type": "cell-based, Pseudomonas aeruginosa", "settings": "PAO1, 18 h", "procedure": "as §3"}, "[12]": {"system": "MSSE 81388", "type": "cell-based, Staphylococcus epidermidis", "settings": "18 h", "procedure": "as §3"}, "[13]": {"system": "MRSE 61589", "type": "cell-based, Staphylococcus epidermidis", "settings": "61589, 18 h", "procedure": "as §3"}, "[14]": {"system": "E. faecium ATCC 27270", "type": "cell-based, Enterococcus faecium", "settings": "ATCC 27270, 18 h", "procedure": "as §3"}, "[15]": {"system": "P. aeruginosa PA262-101856", "type": "cell-based, Pseudomonas aeruginosa", "settings": "for MICUTBLP: UTBLP alone", "in_short": "as §1"}, "[16]": {"system": "MRSA ATCC 33592", "type": "cell-based, Staphylococcus aureus", "in_short": "as §1"}, "[17]": {"system": "S. aureus ATCC 29213", "type": "cell-based, Staphylococcus aureus", "in_short": "as §1"}, "[18]": {"system": "E. cloacae 118564", "assay": "microbe, parasite or virus in culture", "type": "cell-based, Enterobacter cloacae", "settings": "118564, 18 h", "in_short": "as §2"}, "[19]": {"settings": "UTBLP in combination with novobiocin"}, "[20]": {"settings": "UTBLP in combination with rifampicin"}, "[21]": {"settings": "novobiocin in combination with the UTBLP"}, "[22]": {"settings": "rifampicin in combination with the UTBLP"}, "[23]": {"settings": "UTBLP in combination with chloramphenicol"}, "[24]": {"settings": "chloramphenicol in combination with the UTBLP"}, "[25]": {"settings": "UTBLP alone, plate with chloramphenicol"}},
  "note": "Like-named read-outs stand apart in the source and are kept apart here. Residues, ends and D or L forms follow the SMILES beside them. *: point of attachment. Octanoyl = CCCCCCCC(=O)*",
  "data": [
    {"molecule": "CCCCCCCC(=O)NCCCC[C@H](NC(=O)CCCCCCC)C(=O)N[C@@H](CCCCN)C(=O)N[C@@H](CCCCN)C(=O)N[C@@H](CCCCN)C(=O)N[C@@H](CCCCN)C(N)=O", "note": "[UTBLP 5] (Octanoyl-K(Octanoyl)KKKK-NH2)", "values": [
      {"measurement": "Interpretation", "setting": "[1]; UTBLP + novobiocin", "result": "Synergy (FICI ≤ 0.5 is synergistic)"},
      {"measurement": "Interpretation", "setting": "[1]; UTBLP + rifampicin", "result": "Synergy (FICI ≤ 0.5 is synergistic)"},
      {"measurement": "MICUTBLP", "setting": "[1]; plate with novobiocin", "result": 32, "unit": "µg/mL"},
      {"measurement": "MICUTBLP", "setting": "[1]; plate with rifampicin", "result": 32, "unit": "µg/mL"},
      {"measurement": "MICUTBLP [MICcombo]", "setting": "[1]; [19]", "result": 1, "unit": "µg/mL"},
      {"measurement": "MICUTBLP [MICcombo]", "setting": "[1]; [20]", "result": 4, "unit": "µg/mL"},
      {"measurement": "MICantibiotic [MICcombo]", "setting": "[1]; [21]", "result": 2, "unit": "µg/mL"},
      {"measurement": "MICantibiotic [MICcombo]", "setting": "[1]; [22]", "result": 0.125, "unit": "µg/mL"},
      {"measurement": "Interpretation", "setting": "[2]; UTBLP + novobiocin", "result": "Synergy (FICI ≤ 0.5 is synergistic)"},
      {"measurement": "Interpretation", "setting": "[2]; UTBLP + rifampicin", "result": "Synergy (FICI ≤ 0.5 is synergistic)"},
      {"measurement": "MICUTBLP", "setting": "[2]; plate with novobiocin", "result": 128, "unit": "µg/mL"},
      {"measurement": "MICUTBLP", "setting": "[2]; plate with rifampicin", "result": 128, "unit": "µg/mL"},
      {"measurement": "MICUTBLP [MICcombo]", "setting": "[2]; [19]", "result": 4, "unit": "µg/mL"},
      {"measurement": "MICUTBLP [MICcombo]", "setting": "[2]; [20]", "result": 2, "unit": "µg/mL"},
      {"measurement": "MICantibiotic [MICcombo]", "setting": "[2]; [21]", "result": 1, "unit": "µg/mL"},
      {"measurement": "MICantibiotic [MICcombo]", "setting": "[2]; [22]", "result": 0.25, "unit": "µg/mL"},
      {"measurement": "Interpretation", "setting": "[3]; UTBLP + chloramphenicol", "result": "Synergy (FICI ≤ 0.5 is synergistic)"},
      {"measurement": "Interpretation", "setting": "[3]; UTBLP + niclosamide", "result": "Synergy (FICI ≤ 0.5 is synergistic)"},
      {"measurement": "Interpretation", "setting": "[3]; UTBLP + novobiocin", "result": "Synergy (FICI ≤ 0.5 is synergistic)"},
      {"measurement": "Interpretation", "setting": "[3]; UTBLP + rifampicin", "result": "Synergy (FICI ≤ 0.5 is synergistic)"},
      {"measurement": "MICUTBLP", "setting": "[3]; plate with chloramphenicol", "result": 64, "unit": "µg/mL"},
      {"measurement": "MICUTBLP", "setting": "[3]; plate with niclosamide", "result": 64, "unit": "µg/mL"},
      {"measurement": "MICUTBLP", "setting": "[3]; plate with novobiocin", "result": 64, "unit": "µg/mL"},
      {"measurement": "MICUTBLP", "setting": "[3]; plate with rifampicin", "result": 64, "unit": "µg/mL"},
      {"measurement": "MICUTBLP [MICcombo]", "setting": "[3]; [23]", "result": 16, "unit": "µg/mL"},
      {"measurement": "MICUTBLP [MICcombo]", "setting": "[3]; UTBLP in combination with niclosamide", "result": 0.5, "unit": "µg/mL"},
      {"measurement": "MICUTBLP [MICcombo]", "setting": "[3]; [19]", "result": 1, "unit": "µg/mL"},
      {"measurement": "MICUTBLP [MICcombo]", "setting": "[3]; [20]", "result": 2, "unit": "µg/mL"},
      {"measurement": "MICantibiotic [MICcombo]", "setting": "[3]; [24]", "result": 0.25, "unit": "µg/mL"},
      {"measurement": "MICantibiotic [MICcombo]", "setting": "[3]; niclosamide in combination with the UTBLP", "result": 2, "unit": "µg/mL"},
      {"measurement": "MICantibiotic [MICcombo]", "setting": "[3]; [21]", "result": 0.5, "unit": "µg/mL"},
      {"measurement": "MICantibiotic [MICcombo]", "setting": "[3]; [22]", "result": 0.063, "unit": "µg/mL"},
      {"measurement": "MIC", "setting": "[4]", "result": 32, "unit": "µg/mL"},
      {"measurement": "MIC", "setting": "[5]", "result": 128, "unit": "µg/mL"},
      {"measurement": "Interpretation", "setting": "[6]; UTBLP + chloramphenicol", "result": "Additive (0.5 < x ≤ 4 is additive)"},
      {"measurement": "MICUTBLP", "setting": "[6]; [25]", "result": 32, "unit": "µg/mL"},
      {"measurement": "MICUTBLP [MICcombo]", "setting": "[6]; [23]", "result": 4, "unit": "µg/mL"},
      {"measurement": "MICchloramphenicol [MICcombo]", "setting": "[6]; [24]", "result": 4, "unit": "µg/mL"},
      {"measurement": "MIC", "setting": "[7]", "result": 64, "unit": "µg/mL"},
      {"measurement": "MIC", "setting": "[8]", "result": "> 128", "unit": "µg/mL"},
      {"measurement": "MIC", "setting": "[9]", "result": 128, "unit": "µg/mL"},
      {"measurement": "MIC", "setting": "[10]", "result": "> 128", "unit": "µg/mL"},
      {"measurement": "MIC", "setting": "[11]", "result": ">128", "unit": "µg/mL"},
      {"measurement": "MIC", "setting": "[12]", "result": 16, "unit": "µg/mL"},
      {"measurement": "MIC", "setting": "[13]", "result": 8, "unit": "µg/mL"},
      {"measurement": "MIC", "setting": "[14]", "result": 32, "unit": "µg/mL"},
      {"measurement": "Interpretation", "setting": "[15]; UTBLP + novobiocin", "result": "Synergy (FICI ≤ 0.5 is synergistic)"},
      {"measurement": "Interpretation", "setting": "[15]; UTBLP + rifampicin", "result": "Synergy (FICI ≤ 0.5 is synergistic)"},
      {"measurement": "MICUTBLP", "setting": "[15]; plate with novobiocin", "result": "> 128", "unit": "µg/mL"},
      {"measurement": "MICUTBLP", "setting": "[15]; plate with rifampicin", "result": "> 128", "unit": "µg/mL"},
      {"measurement": "MICUTBLP [MICcombo]", "setting": "[15]; [19]", "result": 16, "unit": "µg/mL"},
      {"measurement": "MICUTBLP [MICcombo]", "setting": "[15]; [20]", "result": 16, "unit": "µg/mL"},
      {"measurement": "MICantibiotic [MICcombo]", "setting": "[15]; [21]", "result": 16, "unit": "µg/mL"},
      {"measurement": "MICantibiotic [MICcombo]", "setting": "[15]; [22]", "result": 32, "unit": "µg/mL"},
      {"measurement": "Interpretation", "setting": "[16]; UTBLP + chloramphenicol", "result": "Additive (0.5 < x ≤ 4 is additive)"},
      {"measurement": "MICUTBLP", "setting": "[16]; [25]", "result": 64, "unit": "µg/mL"},
      {"measurement": "MICUTBLP [MICcombo]", "setting": "[16]; [23]", "result": 0.25, "unit": "µg/mL"},
      {"measurement": "MICchloramphenicol [MICcombo]", "setting": "[16]; [24]", "result": 64, "unit": "µg/mL"},
      {"measurement": "MICUTBLP", "setting": "[17]; [25]", "result": 64, "unit": "µg/mL"},
      {"measurement": "MICUTBLP [MICcombo]", "setting": "[17]; [23]", "result": 16, "unit": "µg/mL"},
      {"measurement": "MICchloramphenicol [MICcombo]", "setting": "[17]; [24]", "result": 2, "unit": "µg/mL"},
      {"measurement": "MIC", "setting": "[18]", "result": "> 128", "unit": "µg/mL"}
    ]}
  ]
}
